From PubChem BioAssay AID1963972 (Molecular Pharmacology Branch, DTP, NCI, 2024)

Test system: 945468-187-T-J2-PDC spheroids viability
Assay: Anticancer human tumor 945468-187-T-J2-PDC patient-derived rectal carcinoma cell line growth inhibition [PI3K]
Conditions: spheroids with HUVEC and MSC; for viability, T/C: stronger effect = lower value; active means viability on the fitted dose curve at most 10% of control; inactive means the rest
Procedure, shortened: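 Stroma-containing spheroids: tumor line, pooled-donor HUVEC, hMSC. Treatments: targeted agents with PI3K inhibitors. Dosing: clinically relevant, half-log spacing, 10 microM ceiling without known Cmax. Read-out: cell viability.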

[1] = curve of first compound, second compound 0.0316 µM
[2] = curve of first compound, second compound 0.1 µM
[3] = curve of first compound, second compound 0.316 µM
[4] = curve of first compound, second compound 1 µM
[5] = curve of first compound, second compound 3.16 µM
[6] = curve of first compound, second compound 10 µM
[7] = second compound 0.0316 µM, first compound 0.0316 µM
[8] = second compound 0.0316 µM, first compound 0.1 µM
[9] = second compound 0.0316 µM, first compound 0.316 µM
[10] = second compound 0.0316 µM, first compound 1 µM
[11] = second compound 0.1 µM, first compound 0.0316 µM
[12] = second compound 0.1 µM, first compound 0.1 µM
[13] = second compound 0.1 µM, first compound 0.316 µM
[14] = second compound 0.1 µM, first compound 1 µM
[15] = second compound 0.316 µM, first compound 0.0316 µM
[16] = second compound 0.316 µM, first compound 0.1 µM
[17] = second compound 0.316 µM, first compound 0.316 µM
[18] = second compound 0.316 µM, first compound 1 µM
[19] = second compound 1 µM, first compound 0.0316 µM
[20] = second compound 1 µM, first compound 0.1 µM
[21] = second compound 1 µM, first compound 0.316 µM
[22] = second compound 1 µM, first compound 1 µM
[23] = second compound 3.16 µM, first compound 0.0316 µM
[24] = second compound 3.16 µM, first compound 0.1 µM
[25] = second compound 3.16 µM, first compound 0.316 µM
[26] = second compound 3.16 µM, first compound 1 µM
[27] = second compound 10 µM, first compound 0.0316 µM
[28] = second compound 10 µM, first compound 0.1 µM
[29] = second compound 10 µM, first compound 0.316 µM
[30] = second compound 10 µM, first compound 1 µM
[31] = second compound 0.0316 µM, first compound 3.16 µM
[32] = second compound 0.0316 µM, first compound 10 µM
[33] = second compound 0.1 µM, first compound 3.16 µM
[34] = second compound 0.1 µM, first compound 10 µM
[35] = second compound 0.316 µM, first compound 3.16 µM
[36] = second compound 0.316 µM, first compound 10 µM
[37] = second compound 1 µM, first compound 3.16 µM
[38] = second compound 1 µM, first compound 10 µM
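Further: spheroids exposed to compounds for seven days before reading.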

CCN1CCN(Cc2ccc(Nc3ncc(F)c(-c4cc(F)c5nc(C)n(C(C)C)c5c4)n3)nc2)CC1 + CC(Nc1ncnc2nc[nH]c12)c1cc2cccc(Cl)c2c(=O)n1-c1ccccc1
> 1 µM: IC50 [1] | IC50 [2] | IC50 [3] | IC50 [4] | IC50 [5] | IC50 [6]
inactive: viability, T/C (second compound 0.0316 µM, first compound 0.00316 µM) 91.3% | viability, T/C (second compound 0.0316 µM, first compound 0.01 µM) 103% | viability, T/C [7] 98.8% | viability, T/C [8] 92.9% | viability, T/C [9] 100% | viability, T/C [10] 79.7% | viability, T/C (second compound 0.1 µM, first compound 0.00316 µM) 93.5% | viability, T/C (second compound 0.1 µM, first compound 0.01 µM) 122% | viability, T/C [11] 118% | viability, T/C [12] 89.5% | viability, T/C [13] 84.2% | viability, T/C [14] 71.6% | viability, T/C (second compound 0.316 µM, first compound 0.00316 µM) 83.9% | viability, T/C (second compound 0.316 µM, first compound 0.01 µM) 76.9% | viability, T/C [15] 86% | viability, T/C [16] 84.1% | viability, T/C [17] 95.8% | viability, T/C [18] 67% | viability, T/C (second compound 1 µM, first compound 0.00316 µM) 120% | viability, T/C (second compound 1 µM, first compound 0.01 µM) 98% | viability, T/C [19] 85.4% | viability, T/C [20] 87.8% | viability, T/C [21] 88.7% | viability, T/C [22] 74.2% | viability, T/C (second compound 3.16 µM, first compound 0.00316 µM) 90.8% | viability, T/C (second compound 3.16 µM, first compound 0.01 µM) 98.8% | viability, T/C [23] 94.2% | viability, T/C [24] 87.2% | viability, T/C [25] 77.8% | viability, T/C [26] 59.5% | viability, T/C (second compound 10 µM, first compound 0.00316 µM) 81.5% | viability, T/C (second compound 10 µM, first compound 0.01 µM) 76.4% | viability, T/C [27] 104% | viability, T/C [28] 98.8% | viability, T/C [29] 95% | viability, T/C [30] 53.6%

CCCS(=O)(=O)Nc1ccc(F)c(C(=O)c2c[nH]c3ncc(-c4ccc(Cl)cc4)cc23)c1F
5.05 µM [middle of 4 runs]: IC50 (curve of compound)
inactive: viability, T/C (compound 0.0316 µM) 104% [middle of 4 runs] | viability, T/C (compound 0.1 µM) 88.8% [middle of 4 runs] | viability, T/C (compound 0.316 µM) 94% [middle of 4 runs] | viability, T/C (compound 1 µM) 99.4% [middle of 4 runs]
5.55% [middle of 4 runs]: viability, T/C (compound 10 µM)

CCCS(=O)(=O)Nc1ccc(F)c(C(=O)c2c[nH]c3ncc(-c4ccc(Cl)cc4)cc23)c1F + Cc1nc(NC(=O)N2CCCC2C(N)=O)sc1-c1ccnc(C(C)(C)C(F)(F)F)c1
5.58 µM: IC50 [3]
4.46 µM: IC50 [6]
4.36 µM: IC50 [1]
active: viability, T/C [32] 2.55% | viability, T/C [34] 4.2% | viability, T/C [38] 5.17% | viability, T/C (second compound 3.16 µM, first compound 10 µM) 8.66%
inactive: viability, T/C [7] 84.6% | viability, T/C [8] 96.3% | viability, T/C [9] 67.6% | viability, T/C [10] 80.9% | viability, T/C [31] 68.5% | viability, T/C [11] 87.3% | viability, T/C [12] 66.7% | viability, T/C [13] 86.7% | viability, T/C [14] 108% | viability, T/C [33] 59.9% | viability, T/C [15] 98.5% | viability, T/C [16] 84.8% | viability, T/C [17] 74.3% | viability, T/C [18] 84.8% | viability, T/C [35] 81.9% | viability, T/C [36] 17.3% | viability, T/C [19] 78% | viability, T/C [20] 84.7% | viability, T/C [21] 71.3% | viability, T/C [22] 67.5% | viability, T/C [37] 73.7% | viability, T/C [23] 68.8% | viability, T/C [24] 66% | viability, T/C [25] 78.5% | viability, T/C [26] 72.5% | viability, T/C (second compound 3.16 µM, first compound 3.16 µM) 63.4% | viability, T/C [27] 60.4% | viability, T/C [28] 61.4% | viability, T/C [29] 80% | viability, T/C [30] 55.6% | viability, T/C (second compound 10 µM, first compound 3.16 µM) 70.2% | viability, T/C (second compound 10 µM, first compound 10 µM) 13.4%
4.23 µM: IC50 [5]
4.71 µM: IC50 [4]
3.88 µM: IC50 [2]

Cn1ncc(Cl)c1-c1cc(C(=O)NC(CN)Cc2cccc(F)c2)sc1Cl (configuration not stated) + COc1c(OCCCN2CCOCC2)ccc2c3n(c(=NC(=O)c4cnc(N)nc4)nc12)CCN3
inactive: viability, T/C (second compound 0.00316 µM, first compound 0.0316 µM) 109% | viability, T/C (second compound 0.00316 µM, first compound 0.1 µM) 75.3% | viability, T/C (second compound 0.00316 µM, first compound 0.316 µM) 98.3% | viability, T/C (second compound 0.00316 µM, first compound 1 µM) 110% | viability, T/C (second compound 0.00316 µM, first compound 3.16 µM) 76.8% | viability, T/C (second compound 0.00316 µM, first compound 10 µM) 50.6% | viability, T/C (second compound 0.01 µM, first compound 0.0316 µM) 109% | viability, T/C (second compound 0.01 µM, first compound 0.1 µM) 102% | viability, T/C (second compound 0.01 µM, first compound 0.316 µM) 90.5% | viability, T/C (second compound 0.01 µM, first compound 1 µM) 86.6% | viability, T/C (second compound 0.01 µM, first compound 3.16 µM) 77.2% | viability, T/C (second compound 0.01 µM, first compound 10 µM) 53.3% | viability, T/C [7] 87.3% | viability, T/C [8] 82.5% | viability, T/C [9] 82.4% | viability, T/C [10] 68.9% | viability, T/C [31] 54.3% | viability, T/C [32] 41.4% | viability, T/C [11] 65.6% | viability, T/C [12] 84.9% | viability, T/C [13] 75.2% | viability, T/C [14] 73% | viability, T/C [33] 46% | viability, T/C [34] 32.2% | viability, T/C [15] 38.8% | viability, T/C [16] 34.8% | viability, T/C [17] 35.4% | viability, T/C [18] 28.8% | viability, T/C [35] 32.2% | viability, T/C [36] 26.1% | viability, T/C [19] 18.5% | viability, T/C [20] 18.8% | viability, T/C [21] 18.2% | viability, T/C [22] 19.6% | viability, T/C [37] 18.4% | viability, T/C [38] 14.2%
> 10 µM: IC50 (curve of first compound, second compound 0.00316 µM) | IC50 (curve of first compound, second compound 0.01 µM)
4.53 µM: IC50 [1]
< 0.0316 µM: IC50 [3] | IC50 [4]
2.66 µM: IC50 [2]

C[C@@H](NC(=O)c1ncnc(N)c1Cl)c1ncc(C(=O)Nc2cc(C(F)(F)F)c(Cl)cn2)s1
inactive: viability, T/C (compound 0.0316 µM) 115% [middle of 4 runs] | viability, T/C (compound 0.1 µM) 95.1% [middle of 4 runs] | viability, T/C (compound 0.316 µM) 107% [middle of 4 runs] | viability, T/C (compound 10 µM) 94.3% [middle of 4 runs]
> 10 µM: IC50 (curve of compound)
